This passage reports IC50 results from ChEMBL document CHEMBL1129861, “SAR for MHC class II binding tetrapeptides: Correlation with potential binding site” (Bioorg Med Chem Lett, 1997).

In test [1] the target is HLA-DRB1*01:01. The test is described as follows: Inhibitory concentration to inhibit the binding of biotinylated rat myelin basic protein peptide (RMBP90-102) against DR1 allele of class II MHC for 20 min.
The target in test [2] is HLA-DRB1*01:01. The test is described as follows: Inhibitory concentration required to inhibit the binding of biotinylated rat myelin basic protein peptide (RMBP90-102) against DR1 allele of class II for 5 hr.
The species entered for test [3] is Rattus norvegicus. The test is described as follows: Inhibitory concentration of compound to inhibit the binding of biotinylated rat myelin basic protein peptide (RMBP90-102) against DR4 allele of class II for 5 hr. The class given is functional.
The species named for test [4] is Rattus norvegicus. The test can be described thus: Inhibitory concentration of compound to inhibit the binding of biotinylated rat myelin basic protein peptide (RMBP90-102) against DR4 allele of class II for 20 min. The format is functional.
Test [5] is filed under the species Rattus norvegicus. The test is described as follows: Inhibitory concentration of compound to inhibit the binding of biotinylated rat myelin basic protein peptide (RMBP90-102) against DR1 allele of class II for 45 min. The format is functional.

Molecules are shown by their SMILES. Residues, ends and D or L forms follow the SMILES beside them. *: point of attachment. Ethoxycarbonyl = CCOC(=O)*

Turning to `CCOC(=O)N[C@H](Cc1ccc(OC)cc1)C(=O)N[C@H](C(=O)N[C@@H](C)C(=O)N[C@@H](CC(C)C)C(N)=O)C(C)C`, the IC50 at HLA-DRB1*01:01 [1] came out at 46 nM; at HLA-DRB1*01:01 [2], 180 nM.

Take `CCOC(=O)N[C@H](CC(=O)c1ccccc1)C(=O)N[C@H](C(=O)N[C@@H](C)C(=O)N[C@@H](CC(C)C)C(N)=O)C(C)C`: the IC50 on HLA-DRB1*01:01 [1] was 5700 nM; at HLA-DRB1*01:01 [2] it was 45000 nM. The corresponding values for `CCOC(=O)N[C@H](Cc1ccc(Cl)cc1)C(=O)N[C@H](C(=O)N[C@@H](C)C(=O)N[C@@H](CC(C)C)C(N)=O)C(C)C` are 19 nM and 73 nM. For `CCOC(=O)N[C@H](Cc1ccc(OC(C)=O)cc1)C(=O)N[C@H](C(=O)N[C@@H](C)C(=O)N[C@@H](CC(C)C)C(N)=O)C(C)C`, in that order: 240 nM and 1900 nM. For `CCOC(=O)N[C@H](CSCc1ccccc1)C(=O)N[C@H](C(=O)N[C@@H](C)C(=O)N[C@@H](CC(C)C)C(N)=O)C(C)C`, in that order: 270 nM and 7000 nM. Take `CCOC(=O)N[C@H](Cc1cccnc1)C(=O)N[C@H](C(=O)N[C@@H](C)C(=O)N[C@@H](CC(C)C)C(N)=O)C(C)C`: the IC50 on HLA-DRB1*01:01 [1] is 5300 nM; on HLA-DRB1*01:01 [2] it was 28000 nM.

`CCOC(=O)N[C@@H](Cc1ccccc1)C(=O)N[C@H](C(=O)N[C@@H](C)C(=O)N[C@@H](CC(=O)O)C(N)=O)C(C)C` (Ethoxycarbonyl-FVAD-NH2): the IC50 in the test listed under Rattus norvegicus [3] amounted to 50000 nM; in the test listed under Rattus norvegicus [4] it was 1200 nM. With `CCOC(=O)N[C@@H](Cc1ccccc1)C(=O)N[C@H](C(=O)N[C@@H](C)C(=O)N[C@@H](CC(C)C)C(N)=O)C(C)C` (Ethoxycarbonyl-FVAL-NH2), the IC50 in the test listed under Rattus norvegicus [4] turned out to be 8200 nM. On to `CC(C)C[C@H](NC(=O)[C@H](C)NC(=O)[C@@H](NC(=O)[C@@H](N)Cc1ccccc1)C(C)C)C(N)=O` (H-FVAL-NH2), for which the IC50 in the test listed under Rattus norvegicus [5] turned out to be 1800 nM.
